Experimental data as given in PubChem BioAssay AID2060485 (Molecular Pharmacology Branch, DTP, NCI, 2025).

System: A375 multi-cell spheroids with HUVEC/MSC, viability
Assay: Anticancer human tumor A375 cell line growth inhibition [GQUAD];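 note: spheroids exposed to compounds for seven days before readout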
Conditions: for IC50: curve of first compound; for viability, T/C: stronger effect = lower value
Outline: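 Multi-cell-type spheroids of tumor cells with HUVEC and mesenchymal stem cells, treated with drug combinations. Concentrations descend in half-log steps from near clinical Cmax, or from 10 microM where Cmax is unknown; viability read-out.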

[1] = second compound 0.0316 µM, first compound 0.0316 µM
[2] = second compound 0.0316 µM, first compound 0.1 µM
[3] = second compound 0.0316 µM, first compound 0.316 µM
[4] = second compound 0.0316 µM, first compound 1 µM
[5] = second compound 0.0316 µM, first compound 3.16 µM
[6] = second compound 0.0316 µM, first compound 10 µM
[7] = second compound 0.1 µM, first compound 0.0316 µM
[8] = second compound 0.1 µM, first compound 0.1 µM
[9] = second compound 0.1 µM, first compound 0.316 µM
[10] = second compound 0.1 µM, first compound 1 µM
[11] = second compound 0.1 µM, first compound 3.16 µM
[12] = second compound 0.1 µM, first compound 10 µM
[13] = second compound 0.316 µM, first compound 0.0316 µM
[14] = second compound 0.316 µM, first compound 0.1 µM
[15] = second compound 0.316 µM, first compound 0.316 µM
[16] = second compound 0.316 µM, first compound 1 µM
[17] = second compound 0.316 µM, first compound 3.16 µM
[18] = second compound 0.316 µM, first compound 10 µM
[19] = second compound 1 µM, first compound 0.0316 µM
[20] = second compound 1 µM, first compound 0.1 µM
[21] = second compound 1 µM, first compound 0.316 µM
[22] = second compound 1 µM, first compound 1 µM
[23] = second compound 1 µM, first compound 3.16 µM
[24] = second compound 1 µM, first compound 10 µM
[25] = second compound 3.16 µM, first compound 0.0316 µM
[26] = second compound 3.16 µM, first compound 0.1 µM
[27] = second compound 3.16 µM, first compound 0.316 µM
[28] = second compound 3.16 µM, first compound 1 µM
[29] = second compound 3.16 µM, first compound 3.16 µM
[30] = second compound 3.16 µM, first compound 10 µM
[31] = second compound 10 µM, first compound 0.0316 µM
[32] = second compound 10 µM, first compound 0.1 µM
[33] = second compound 10 µM, first compound 0.316 µM
[34] = second compound 10 µM, first compound 1 µM
[35] = second compound 10 µM, first compound 3.16 µM
[36] = second compound 10 µM, first compound 10 µM

Molecule COc1cccc2c1C(=O)c1c(O)c3c(c(O)c1C2=O)CC(O)(C(=O)CO)CC3OC1CC(N)C(O)C(C)O1 (centres undefined) + Cc1cnc(CNC(=O)c2c(=O)c3ccc(N4CCCN(C)CC4)nc3n3c2sc2ccccc23)cn1 has an IC50 (second compound 0.0316 µM) of 168 nM, an IC50 (second compound 0.1 µM) of 56.2 nM and an IC50 (second compound 0.316 µM) of less than 31.6 nM. For the same molecule, the IC50 (second compound 1 µM) was less than 31.6 nM, the IC50 (second compound 3.16 µM) was less than 31.6 nM and the IC50 (second compound 10 µM) was less than 31.6 nM. For the same molecule, the viability, T/C [1] was 109%, the viability, T/C [2] was 64.1% and the viability, T/C [3] was 31.2%. The viability, T/C [4] was 20.5%, the viability, T/C [5] was 1.64% and the viability, T/C [6] was 0.08%. It also gave a viability, T/C [7] of 59.3%, a viability, T/C [8] of 38.7% and a viability, T/C [9] of 30.2%. It also gave a viability, T/C [10] of 17.9%, a viability, T/C [11] of 1% and a viability, T/C [12] of 0.06%. The viability, T/C [13] was 41.5%, the viability, T/C [14] was 33.4% and the viability, T/C [15] was 27.4%. It also gave a viability, T/C [16] of 16.1%, a viability, T/C [17] of 0.21% and a viability, T/C [18] of 0.08%. It also gave a viability, T/C [19] of 37.1%, a viability, T/C [20] of 30.9% and a viability, T/C [21] of 27.4%. For the same molecule, the viability, T/C [22] was 15.2%, the viability, T/C [23] was 0.07% and the viability, T/C [24] was 0.09%. The viability, T/C [25] was 33%, the viability, T/C [26] was 31.4% and the viability, T/C [27] was 24.5%. For the same molecule, the viability, T/C [28] was 14.9%, the viability, T/C [29] was 0.12% and the viability, T/C [30] was 0.13%. It also gave a viability, T/C [31] of 25.6%, a viability, T/C [32] of 24.9% and a viability, T/C [33] of 20.4%. For the same molecule, the viability, T/C [34] was 13.7%, the viability, T/C [35] was 0.21% and the viability, T/C [36] was 0.22%.

With CCCS(=O)(=O)Nc1ccc(F)c(C(=O)c2c[nH]c3ncc(-c4ccc(Cl)cc4)cc23)c1F + Cc1cnc(CNC(=O)c2c(=O)c3ccc(N4CCCN(C)CC4)nc3n3c2sc2ccccc23)cn1 the IC50 (second compound 0.0316 µM) was less than 31.6 nM, the IC50 (second compound 0.1 µM) was less than 31.6 nM and the IC50 (second compound 0.316 µM) was less than 31.6 nM. The IC50 (second compound 1 µM) was less than 31.6 nM, the IC50 (second compound 3.16 µM) was less than 31.6 nM and the IC50 (second compound 10 µM) was less than 31.6 nM. The viability, T/C [1] was 34.1%, the viability, T/C [2] was 16.2% and the viability, T/C [3] was 9.28%. For the same molecule, the viability, T/C [4] was 8.24%, the viability, T/C [5] was 5.87% and the viability, T/C [6] was 7.01%. The viability, T/C [7] was 27.9%, the viability, T/C [8] was 14.7% and the viability, T/C [9] was 10.1%. The viability, T/C [10] was 6.6%, the viability, T/C [11] was 5.83% and the viability, T/C [12] was 5.93%. For the same molecule, the viability, T/C [13] was 23.5%, the viability, T/C [14] was 14% and the viability, T/C [15] was 7.97%. It also gave a viability, T/C [16] of 6.65%, a viability, T/C [17] of 5.74% and a viability, T/C [18] of 3.51%. The viability, T/C [19] was 21.8%, the viability, T/C [20] was 13.2% and the viability, T/C [21] was 8.1%. For the same molecule, the viability, T/C [22] was 6.44%, the viability, T/C [23] was 6.08% and the viability, T/C [24] was 2.62%. For the same molecule, the viability, T/C [25] was 16.2%, the viability, T/C [26] was 11.3% and the viability, T/C [27] was 8.15%. It also gave a viability, T/C [28] of 7.91%, a viability, T/C [29] of 6.35% and a viability, T/C [30] of 0.08%. For the same molecule, the viability, T/C [31] was 16%, the viability, T/C [32] was 13.5% and the viability, T/C [33] was 8.99%. For the same molecule, the viability, T/C [34] was 7.73%, the viability, T/C [35] was 6.2% and the viability, T/C [36] was 0.13%.
